Holding throughout (assay): NCI tumour cell line growth inhibition, 48 h
In experiment [1] the test system is NCI-H460 lung.
The subject of experiment [2] is T-47D breast.
In experiment [3] the test system is OVCAR-3 ovarian.
In experiment [4] the test system is NCI-H226 lung.
Experiment [5] deals with M14 melanoma.
For experiment [6], the system named is SK-MEL-5 melanoma.
Experiment [7] deals with HOP-92 NSCLC.
In experiment [8] the test system is SF-268 CNS.
Experiment [9] has as its system SN12C renal.
The test system of experiment [10] is EKVX NSCLC.

Molecules are shown by their SMILES.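 Exposure lasted 48 hours, with cells grown in 96-well plates and compounds tested at five concentrations. GI50 is the concentration that inhibits growth by half. At the TGI there is no net growth.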

`O=C1NC(O)C(c2c[nH]c3ccccc23)=C1c1c[nH]c2ccccc12` (stereo not drawn): the GI50 in experiment [1], in [2], in experiment [3], in experiment [4], in experiment [5] and in [6] was greater than 25 µM each time. Moreover, the GI50 was 4.42 µM in [7], greater than 25 µM in experiment [8] and greater than 25 µM in experiment [9]. The TGI in [1], in [2], in experiment [3], in experiment [4], in experiment [5] and in experiment [6] was greater than 25 µM each time. Also, the TGI in experiment [7], in [8] and in [9] was greater than 25 µM throughout.

`O=C(c1ccco1)c1nc2cc(Cl)ccc2[n+]([O-])c1C(F)(F)F`: the GI50 in experiment [1] is 57 µM; in experiment [2], 27.5 µM; in experiment [3] it was greater than 100 µM; in [10], 37.6 µM; in experiment [4], 33.2 µM; in experiment [5] it was 59.1 µM. Moreover, the GI50 in [6] was 20.3 µM; in experiment [8], 71.1 µM; in experiment [9] it was 91 µM. In addition, the TGI in experiment [1], in experiment [2], in [3], in experiment [10], in [4] and in [5] was greater than 100 µM in each case. Moreover, the TGI in experiment [6] is 49.6 µM; in experiment [8], greater than 100 µM; in experiment [9], greater than 100 µM.

In the case of `CC1(C)N=C(N)N=C(N)N1c1ccc(OCCCCOc2ccc(S(=O)(=O)F)cc2)c(Cl)c1`, the GI50 in experiment [1] is 0.0382 µM; in experiment [2], 1.14 µM; in experiment [3] it was 0.655 µM; in experiment [4], 0.58 µM; in experiment [5], 0.116 µM; in [6], 0.346 µM. Also, the results for the GI50 in experiment [7], in [8] and in [9] were 0.671 µM, 0.076 µM and 0.0575 µM, respectively. The TGI in [1] came to 11.8 µM; in [2], 13.2 µM; in [3], 16.6 µM; in experiment [4] it was 28.1 µM; in experiment [5], 15.3 µM; in [6] it was 8.5 µM. Moreover, the TGI came to 10.9 µM in experiment [7], 16.4 µM in experiment [8] and 15.2 µM in [9].

For `CCn1c(CN2CCN(Cc3ccccc3)CC2)nc2cc(NC(=O)c3cccs3)ccc21`, the GI50 is 18.7 µM in experiment [1]; 6.8 µM in experiment [2]; 20.6 µM in [3]; 15.2 µM in [4]; 16.9 µM in experiment [5]; 11.5 µM in experiment [6]. In addition, the figures for the GI50 in experiment [7], in [8] and in experiment [9] were 12.3 µM, 25.4 µM and 23.5 µM, respectively. The TGI was 42.5 µM in experiment [1]; 33.8 µM in experiment [2]; greater than 100 µM in [3]; 41.5 µM in [4]; 33.4 µM in [5]; 24.1 µM in [6]. Also, the TGI in experiment [7] is 40.3 µM; in [8], 97.9 µM; in [9], greater than 100 µM.

As to `COc1ccccc1CCN=C1NC(=O)/C(=C/c2ccc3ncccc3c2)S1`, the GI50 is 6.05 µM in experiment [1]; 6.76 µM in experiment [2]; 4.99 µM in experiment [3]; 7.28 µM in experiment [4]; 8.41 µM in experiment [5]; 5.92 µM in experiment [6]. For the same molecule, the GI50 in experiment [7] was 6.02 µM; in experiment [8], 7.54 µM; in experiment [9], 6.93 µM. Besides, the TGI is greater than 25 µM in experiment [1]; greater than 23.1 µM in [2]; 12.2 µM in [3]; 24.7 µM in experiment [4]; greater than 25 µM in [5]; 17.6 µM in experiment [6]. The TGI in experiment [7] is 22.1 µM; in [8] it was greater than 25 µM; in [9], greater than 25 µM.

Consider `CCC/C(=N/N=C(N)N)c1ccc(NC(=O)c2cc3cc(OC)ccc3[nH]2)cc1`, for which the GI50 in experiment [2] is 7.06 µM; in experiment [3], 6.36 µM; in experiment [4], 14.7 µM; in experiment [6], 10.1 µM; in experiment [7] it was 1.89 µM; in [8], 5.22 µM. For the same molecule, the GI50 in [9] was 14.1 µM. The TGI was 32.9 µM in [2]; 29.7 µM in experiment [3]; 41.7 µM in [4]; 27 µM in experiment [6]; 12.1 µM in experiment [7]; 29.9 µM in experiment [8]. The molecule also registered a TGI in experiment [9] of 33.7 µM.

For the molecule `COc1cc(C)c(Cl)cc1C1=NN(c2ccc(S(N)(=O)=O)cc2)C(/C=C/c2ccccc2)C1` (stereo not drawn), the GI50 in experiment [1] was 2.43 µM; in experiment [2], 3.34 µM; in experiment [3], 2.61 µM; in experiment [10], 2.68 µM; in [4], 1.53 µM; in [5], 4.11 µM. Besides, the GI50 in experiment [6] was 1.61 µM; in experiment [8] it was 4.4 µM; in experiment [9], 2.68 µM. The TGI in [1] is 6.3 µM; in [2], 16 µM; in experiment [3], 6.46 µM; in [10], 22 µM; in experiment [4], 3.46 µM; in experiment [5], 24.3 µM. Further, the results for the TGI in experiment [6], in experiment [8] and in experiment [9] were 3 µM, greater than 100 µM and 7.03 µM, respectively.

For the molecule `CCc1c(C#N)c(S[C@@H](C(N)=O)c2ccccc2)nc(N(C)C)c1C#N`, the GI50 in experiment [1] is greater than 100 µM; in [2] it was greater than 100 µM; in experiment [3], greater than 100 µM; in experiment [10], 7.93 µM; in experiment [4], 4.76 µM; in experiment [5], greater than 100 µM. For the same molecule, the results for the GI50 in experiment [8] and in [9] were 5.07 µM and 6.81 µM, respectively. Besides, the TGI in experiment [1], in experiment [2], in experiment [3], in experiment [10], in experiment [4] and in [5] was greater than 100 µM throughout. Also, the TGI in experiment [8] and in experiment [9] was greater than 100 µM in each case.
